The values below come from US10472333B2, “P2X4 receptor antagonist” (NIPPON CHEMIPHAR CO., LTD., priority 2013, dated 2019).

Structures can show the parent of a compound that is named as a salt.

By IC50 is commonly meant the concentration that gives 50% inhibition.

One assay has as its target T1, human P2X4 receptor (Homo sapiens, UniProt Q99571).
T1 sequence (Q99571 1-388): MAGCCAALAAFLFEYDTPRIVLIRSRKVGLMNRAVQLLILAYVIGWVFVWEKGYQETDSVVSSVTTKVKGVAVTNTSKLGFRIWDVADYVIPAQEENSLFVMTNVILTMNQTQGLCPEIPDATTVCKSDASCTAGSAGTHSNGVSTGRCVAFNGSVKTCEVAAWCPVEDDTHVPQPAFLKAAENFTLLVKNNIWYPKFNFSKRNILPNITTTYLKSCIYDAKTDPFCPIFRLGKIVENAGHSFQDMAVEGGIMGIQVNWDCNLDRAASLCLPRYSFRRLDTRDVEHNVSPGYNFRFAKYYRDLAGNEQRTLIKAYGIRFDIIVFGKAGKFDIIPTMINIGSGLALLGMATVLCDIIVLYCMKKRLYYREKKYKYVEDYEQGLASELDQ
The assay can be described thus: P2X4 receptor antagonist activity, ATP-induced intracellular calcium (Fura-2 AM) in 1321N1 cells stably expressing human P2X4 receptor. The format is cell-based.
Settings: not given
On the technique in general: Calcium assays in cells follow changes in intracellular calcium, usually with a dye or a luminescent sensor.
As to `CCc1c(O)cccc1C(=O)Nc1ccc(C2=NCC(=O)Nc3c2ccc2ccccc32)cc1` [Example 2, 2-Ethyl-3-hydroxy-N-[4-(2-oxo-2,3-dihydro-1H-naphtho[1,2-e][1,4]-diazepin-5-yl)phenyl]benzamide], the IC50 was 770 nM.

Turning to `CCc1ncccc1C(=O)Nc1ccc(C2=NCC(=O)Nc3c2ccc2ccccc32)cc1` [Example 3, 2-Ethyl-N-[4-(2-oxo-2,3-dihydro-1H-naphtho[1,2-e][1,4]-diazepin-5-yl)phenyl]nicotinamide dihydrochloride], the IC50 was 1600 nM.

Take `CCc1cccc(O)c1C(=O)Nc1ccc(C2=NCC(=O)Nc3c2ccc2ccccc32)cc1` [Example 4, 2-Ethyl-6-hydroxy-N-[4-(2-oxo-2,3-dihydro-1H-naphtho[1,2-e][1,4]-diazepin-5-yl)phenyl]benzamide]: the IC50 amounted to 1500 nM.

Turning to `COc1ccccc1CC(=O)Nc1ccc(C2=NCC(=O)Nc3c2ccc2ccccc32)cc1` [Example 7, 2(2-Methoxyphenyl)-N-[4-(2-oxo-2,3-dihydro-1H-naphtho[1,2-e][1,4]-diazepin-5-yl)phenyl]acetamide], the IC50 was 970 nM.

With `O=C1CN=C(c2ccc(NC(=O)c3cccnc3-n3cccc3)cc2)c2ccc3ccccc3c2N1` [Example 19, N-[4-(2-Oxo-2,3-dihydro-1H-naphtho[1,2-e][1,4]-diazepin-5-yl)phenyl]-2-(1H-pyrrol-1-yl)nicotinamide dihydrochloride], the IC50 was determined as 2400 nM.

For the molecule `O=C1CN=C(c2ccc(NC(=O)c3cccnc3N3CCOCC3)cc2)c2ccc3ccccc3c2N1` [Example 20, 2-(Morpholin-4-yl)-N-[4-(2-oxo-2,3-dihydro-1H-naphtho[1,2-e][1,4]-diazepin-5-yl)phenyl]nicotinamide dihydrochloride], the IC50 was 2500 nM.

With `O=C1CN=C(c2ccc(NC(=O)c3cccnc3N3CCCC3)cc2)c2ccc3ccccc3c2N1` [Example 21, N-[4-(2-Oxo-2,3-dihydro-1H-naphtho[1,2-e][1,4]-diazepin-5-yl)phenyl]-2-(pyrrolidin-1-yl)nicotinamide dihydrochloride], the half-inhibitory concentration (IC50) came to 1300 nM.

For `CN(C)c1ccncc1C(=O)Nc1ccc(C2=NCC(=O)Nc3c2ccc2ccccc32)cc1` [Example 22, 4-(Dimethylamino)-N-[4-(2-oxo-2,3-dihydro-1H-naphtho[1,2-e][1,4]diazepin-5 yl)phenyl]nicotinamide dihydrochloride], the IC50 is 1500 nM.

`CC(C)c1ncccc1C(=O)Nc1ccc(C2=NCC(=O)Nc3c2ccc2ccccc32)cc1` [Example 23, 2-Isopropyl-N-[4-(2-oxo-2,3-dihydro-1H-naphtho[1,2-e][1,4]diazepin-5 yl)phenyl]nicotinamide dihydrochloride]: the IC50 was 2300 nM.

`CC(C)Nc1ncccc1C(=O)Nc1ccc(C2=NCC(=O)Nc3c2ccc2ccccc32)cc1` [Example 24, 2-(Isopropylamino)-N-[4-(2-oxo-2,3-dihydro-1H-naphtho[1,2-e][1,4]diazepin-5-yl)phenyl]nicotinamide dihydrochloride]: the IC50 amounted to 8600 nM.

Still in this assay, the particulars now being: Table 9; 1321N1 cells expressing human P2X4; test substance 15 minutes before ATP; read-out: Inhibitory activity IC50.
`CC(C)(C)c1ccccc1C(=O)Nc1ccc(N2C(=O)CC(=O)Nc3c2ccc2ccccc32)cc1F` [Example 12, 2-tert-Butyl-N-[4-(2,4-dioxo-3,4-dihydro-1H-naphtho[2,1-b][1,4]diazepin-5(2H)-yl)2-fluorophenyl]benzamide]: the half-maximal inhibitory concentration (IC50) amounted to 370 nM.

For the molecule `CN(C)c1ncccc1C(=O)Nc1ccc(N2C(=O)CC(=O)Nc3c2ccc2ccccc32)cc1` [Example 14, 2-(Dimethylamino)-N-[4-(2,4-dioxo-2,3-dihydro-1H-naphtho[1,2-b][1,4]diazepin-5(2H)-yl)phenyl]nicotinamide hydrochloride], the IC50 was found to be 590 nM.

Staying with this assay, now noted: Table 10; 1321N1 cells expressing human P2X4; test substance 15 minutes before ATP; read-out: Inhibitory activity IC50.
As for `O=C1CC(=O)N(c2ccc(NC(=O)c3cccnc3N3CCOCC3)cc2)c2ccc3ccccc3c2N1` [Example 18, N-[4-(2,4-Dioxo-3,4-dihydro-1H-naphtho[1,2-b][1,4]-diazepin-5(2H)-yl)phenyl]-2-(morpholin-4-yl)-nicotinamide hydrochloride], the IC50 is 1300 nM.
